From ChEMBL document CHEMBL1687905, “Blockade of IL-6 secretion pathway by the sesquiterpenoid atractylenolide III” (J Nat Prod, 2011)
Active and inactive are the calls of the source. The calls are words filed in the database; no cut-off is given here.

What was measured:
HMC1 [1] = test: Immunomodulatory activity in human HMC1 cells assessed as inhibition of phorbol 12-myristate 13-acetate/A23187-stimulated IL1-beta secretion treated 1 hr prior to 30 mins phorbol 12-myristate 13-acetate/A23187 challenge by Western blotting analysis; format: functional, cell-based
HMC1 [2] = test: Immunomodulatory activity in human HMC1 cells assessed as inhibition of phorbol 12-myristate 13-acetate/A23187-stimulated IL-6 secretion by ELISA method; format: functional, cell-based
HMC1 [3] = test: Suppression of NF-kappaB activation in human HMC1 cells assessed as inhibition of phorbol 12-myristate 13-acetate/A23187-stimulated luciferase activity at 1 to 100 uM treated 1 hr prior to 24 hrs phorbol 12-myristate 13-acetate/A23187 challenge by luciferase reporter gene assay; format: cell-based
HMC1 [4] = test: Immunomodulatory activity in human HMC1 cells assessed as inhibition of phorbol 12-myristate 13-acetate/A23187-stimulated ERK phosphorylation at 1 to 100 uM treated 1 hr prior to 30 mins phorbol 12-myristate 13-acetate/A23187 challenge; format: functional, cell-based
HMC1 [5] = test: Immunomodulatory activity in human HMC1 cells assessed as inhibition of phorbol 12-myristate 13-acetate/A23187-stimulated caspase 1 activation at 1 to 100 uM treated 1 hr prior to 30 mins phorbol 12-myristate 13-acetate/A23187 challenge by Western blotting analysis; format: functional, cell-based
HMC1 [6] = test: Suppression of NF-kappaB activation in human HMC1 cells assessed as inhibition of phorbol 12-myristate 13-acetate/A23187-stimulated nuclear Rel A/p65 level at 1 to 100 uM treated 1 hr prior to 2 hrs phorbol 12-myristate 13-acetate/A23187 challenge by Western blotting analysis; format: cell-based
HMC1 [7] = test: Immunomodulatory activity in human HMC1 cells assessed as inhibition of phorbol 12-myristate 13-acetate/A23187-stimulated IL-6 mRNA expression at 1 to 100 uM treated 1 hr prior to 5 hrs phorbol 12-myristate 13-acetate/A23187 challenge by RT-PCR analysis; format: functional, cell-based
HMC1 [8] = test: Immunomodulatory activity in human HMC1 cells assessed as inhibition of phorbol 12-myristate 13-acetate/A23187-stimulated histamine secretion at 100 uM treated 1 hr prior to 6 hrs phorbol 12-myristate 13-acetate/A23187 challenge by histamine assay kit; format: functional, cell-based
HMC1 [9] = test: Immunomodulatory activity in human HMC1 cells assessed as inhibition of phorbol 12-myristate 13-acetate/A23187-stimulated caspase 1 activation at 1 to 100 uM treated 1 hr prior to 30 mins phorbol 12-myristate 13-acetate/A23187 challenge by caspase colorimetric assay; format: functional, cell-based
HMC1 [10] = test: Suppression of NF-kappaB activation in human HMC1 cells assessed as inhibition of phorbol 12-myristate 13-acetate/A23187-stimulated IkappaB-alpha degradation at 1 to 100 uM treated 1 hr prior to 2 hrs phorbol 12-myristate 13-acetate/A23187 challenge by Western blotting analysis; format: cell-based
HMC1 [11] = test: Immunomodulatory activity in human HMC1 cells assessed as inhibition of phorbol 12-myristate 13-acetate/A23187-stimulated RIP-2 activation at 1 to 100 uM treated 1 hr prior to 30 mins phorbol 12-myristate 13-acetate/A23187 challenge by Western blotting analysis; format: functional, cell-based
HMC1 [12] = test: Immunomodulatory activity in human HMC1 cells assessed as inhibition of phorbol 12-myristate 13-acetate/A23187-stimulated p38 phosphorylation at 1 to 100 uM treated 1 hr prior to 30 mic phorbol 12-myristate 13-acetate/A23187 challenge; format: functional, cell-based
HMC1 [13] = test: Immunomodulatory activity in human HMC1 cells assessed as inhibition of phorbol 12-myristate 13-acetate/A23187-stimulated JNK phosphorylation at 1 to 100 uM treated 1 hr prior to 30 mic phorbol 12-myristate 13-acetate/A23187 challenge; format: functional, cell-based
HMC1 [14] = test: Immunomodulatory activity in human HMC1 cells assessed as inhibition of phorbol 12-myristate 13-acetate/A23187-stimulated IL1-beta secretion at 1 to 100 uM treated 1 hr prior to 30 mins phorbol 12-myristate 13-acetate/A23187 challenge by Western blotting analysis; format: functional, cell-based
[15] = Cytotoxicity against human HMC1 cells assessed as cell viability at 1 to 100 uM after 8 hrs by MTT colorimetric assay; format: cell-based; conditions: hmc1, 8 h

With `C[C@@H]1C[C@H]2[C@@H]3CCC4=CC(=O)C=C[C@]4(C)[C@@]3(F)[C@@H](O)C[C@]2(C)[C@@]1(O)C(=O)CO` the inhibition (HMC1 [1]) was “Active”.

For `C=C1CCC[C@]2(C)C[C@]3(O)OC(=O)C(C)=C3C[C@@H]12` [ATRACTYLENOLIDE III], the inhibition (HMC1 [2]) was “Dose-dependent effect”, the inhibition (HMC1 [3]) was “Active” and the inhibition (HMC1 [4]) was “inactive”. For the same compound, the inhibition (HMC1 [5]) was “Dose-dependent effect”, the inhibition (HMC1 [6]) was “Active” and the inhibition (HMC1 [7]) was “Active”. The inhibition (HMC1 [8]) was “Active”, the inhibition (HMC1 [9]) was “Active” and the inhibition (HMC1 [10]) was “Active”. The inhibition (HMC1 [11]) was “Dose-dependent effect”, the inhibition (HMC1 [12]) was “Active” and the inhibition (HMC1 [13]) was “Active”. For the same compound, the inhibition (HMC1 [14]) was “Active” and the Activity [15] was “Non-toxic”.
